# Laboratory results reported in patent publication US7745450B2, “Pyrazolo[4,3-d]pyrimidines, processes for their preparation and methods for therapy” (Institute of Experimental Botany, priority 2002, dated 2010).
# pIC50: −log10 of the molar value.
# Experiments:
# cdk1/cyclin B (CDC2) = cdk1/cyclin B (CDC2) (Homo sapiens, UniProt P06493); assay: CDK inhibition assay, cdk1/cyclin B (CDC2) kinase, histone phosphorylation; assay type: biochemical
# Method: Selected compounds were tested for cdk1/cyclin B and cdk2/cyclin E inhibitory activity to determine the basic relationships between their interaction energy of docked complex and the inhibitory activity. Cdk2/cyclin E complex was produced in SIP insect cells co-infected with appropriate baculoviral construct. The cells were harvested 70 hours post infection in lysis buffer (50 mM Tris 7.4 pH, 150 mM NaCl, 5 mM EDTA, 20 mM NaF, 1% Tween 20, protease inhibitors) for 30 min on ice and the soluble fraction was recovered by centrifugation at 14.000 g for 10 min. The protein extract was stored at −80° C. until use. The final point test system for kinase activity measurement was used to carry out experiments on the kinetics under linear conditions. The assay mixture contained 1 mg/ml histone (Sigma Type III-S), 15 μM ATP, 0.2 μCi [γ-^32P] ATP and tested compound in a final volume of 20 μl, all in reaction buffer: 50 mM Hepes 7.4 pH, 10 mM MgCl2, 5 mM EGTA, 10 mM 2-glycerolphosphate, 1 mM NaF, 1 mM DTT and protease inhibitors. […] The measurement of kinase inhibition employed the digital imaging analyzer BAS 1800. The kinase activity was expressed as a percentage of maximum activity and the IC50 value was determined by graphic analysis. The kinase activity is expressed as a percentage of maximum activity, the apparent inhibition constants are determined by graphic analysis from dose-response curves presented on FIG. 1.
# IκB-α kinase = IκB-α kinase inhibition, in vitro kinase assay; assay type: biochemical
# B16 = assay: In vitro cytotoxic activity, Calcein AM; assay type: cell-based; conditions: Mus musculus, B16, 72 h, three days
# [1] = tested on: CEM (human lymphoblastoid leukemia); assay: In vitro cytotoxic activity, Calcein AM; assay type: cell-based; conditions: Homo sapiens, 72 h, three days
# Method: We have been using the following cell lines: HELA (human cervical carcinoma), MCF7 (human breast adenocarcinoma), NIH 3T3 (mouse fibroblasts), HOS (human osteogenic sarcoma), HL 60 (human promyelocytic leukemia), G 361 (human malignant melanoma), K562 (human erythroleukemia), CEM (human lymphoblastoid leukemia). Tested drugs were added to the cell cultures in six different concentration and kept at 37° C. and 5% CO2 for three days. All cell lines were grown in DMEM medium (Gibco BRL) supplemented with 10% (v/v) fetal bovine serum and L-glutamine and maintained at 37° C. in a humidified atmosphere with 5% CO2. 10^4 cells were seeded into each well of 96 well plate, allowed to stabilize for at least 2 h and then tested compounds were added at various concentrations ranging from 200 to 0.2 μM in triplicates. Three days after drug addition Calcein AM solution (Molecular Probes) was added and let to enter the cells for 1 hour. Fluorescence of viable cells was quantified employing Fluoroskan Ascent (Microsystems).
# cdk1/cyclin B (CDC2), sequence (P06493 whole entry, species assumed): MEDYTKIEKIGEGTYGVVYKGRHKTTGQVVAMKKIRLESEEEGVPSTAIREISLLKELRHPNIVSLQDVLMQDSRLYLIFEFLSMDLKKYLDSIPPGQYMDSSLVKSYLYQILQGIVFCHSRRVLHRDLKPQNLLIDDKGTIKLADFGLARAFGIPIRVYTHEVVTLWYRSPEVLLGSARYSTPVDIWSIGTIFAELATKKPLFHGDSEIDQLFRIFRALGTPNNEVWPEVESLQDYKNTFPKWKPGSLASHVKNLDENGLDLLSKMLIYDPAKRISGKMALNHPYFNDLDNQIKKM
# cdk1/cyclin B (CDC2), sequence (P14635 whole entry partner, species assumed): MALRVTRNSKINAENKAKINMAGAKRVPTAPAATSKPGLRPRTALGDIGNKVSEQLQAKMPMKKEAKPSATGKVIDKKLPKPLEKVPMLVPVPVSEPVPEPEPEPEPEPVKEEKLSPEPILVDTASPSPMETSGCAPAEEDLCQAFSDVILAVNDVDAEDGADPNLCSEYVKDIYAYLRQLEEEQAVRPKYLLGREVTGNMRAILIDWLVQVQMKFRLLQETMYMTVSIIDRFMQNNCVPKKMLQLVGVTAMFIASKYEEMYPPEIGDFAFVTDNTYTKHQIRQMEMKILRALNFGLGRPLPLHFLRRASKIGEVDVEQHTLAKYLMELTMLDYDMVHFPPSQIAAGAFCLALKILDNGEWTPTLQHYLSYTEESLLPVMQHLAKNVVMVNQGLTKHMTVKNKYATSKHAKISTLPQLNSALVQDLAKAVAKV
SMILES,pIC50 (cdk1/cyclin B (CDC2)),pIC50 (IκB-α kinase),GI50 (B16),GI50 [1]
CC(C)c1n[nH]c2c(Nc3ccc(Cl)cc3)nc(N[C@@H](CO)C(C)C)nc12,–,–,5700 nM,4100 nM
CC(C)c1n[nH]c2c(Nc3ccc(Cl)c(C(=O)O)c3)nc(N[C@@H](CO)C(C)C)nc12,–,–,9100 nM,5800 nM
Cc1n[nH]c2c(NCc3c(N)cccc3Cl)nc(NCCO)nc12,7.40,7.10,–,–
CC(C)c1n[nH]c2c(NCc3ccc(Cl)c(O)c3O)nc(N[C@@H](CO)C(C)C)nc12,–,–,1400 nM,900 nM
CC(C)c1n[nH]c2c(Nc3ccc(N)c(Cl)c3)nc(N[C@@H](CO)C(C)C)nc12,–,–,4800 nM,2500 nM
Cc1n[nH]c2c(NCc3ccccc3)nc(NCCO)nc12 [2-hydroxyethylamino; benzylamino; methyl],5.40,5.03,–,–
Cc1n[nH]c2c(Nc3cc(N)cc(Cl)c3)nc(NCCO)nc12,8.00,7.70,–,–
CC[C@H](CO)Nc1nc(Nc2ccc(N)c(Cl)c2)c2[nH]nc(C(C)C)c2n1,–,–,19600 nM,12200 nM
CC[C@H](CO)Nc1nc(Nc2ccc(C(=O)O)c(Cl)c2)c2[nH]nc(C(C)C)c2n1,–,–,11200 nM,7900 nM
CC(C)c1n[nH]c2c(NCc3ccccc3O)nc(N[C@@H](CO)C(C)C)nc12 [listing 1 of 2 here],–,–,9800 nM,6700 nM
Cc1n[nH]c2c(Nc3ccc(Cl)cc3)nc(NCCO)nc12,8.05,7.72,–,–
Cc1n[nH]c2c(NC(CO)c3ccccc3)nc(NCCO)nc12 (racemic) [listing 1 of 2 here],–,–,9400 nM,8900 nM
Cc1n[nH]c2c(NCc3ccccc3)nc(NCCCO)nc12,6.15,5.74,–,–
CC(C)c1n[nH]c2c(Nc3ccc(Cl)c(N)c3)nc(N[C@@H](CO)C(C)C)nc12,–,–,4400 nM,2900 nM
CC(=O)Oc1ccccc1CNc1nc(NCCO)nc2c(C)n[nH]c12,6.30,5.92,–,–
CC[C@H](CO)Nc1nc(Nc2ccc(Cl)c(C(=O)O)c2)c2[nH]nc(C(C)C)c2n1,–,–,5200 nM,4500 nM
CC(C)c1n[nH]c2c(Nc3ccc(C(=O)O)c(Cl)c3)nc(N[C@@H](CO)C(C)C)nc12,–,–,12400 nM,7600 nM
CC(C)c1n[nH]c2c(Nc3ccccc3)nc(N[C@@H](CO)C(C)C)nc12,–,–,3600 nM,2500 nM

SMILES,pIC50 (cdk1/cyclin B (CDC2)),pIC50 (IκB-α kinase),GI50 (B16),GI50 [1]
Cc1n[nH]c2c(NC(CO)c3ccccc3)nc(NCCO)nc12 (racemic) [listing 2 of 2 here],6.70,6.40,–,–
CC(C)c1n[nH]c2c(NCc3c(N)cccc3Cl)nc(N[C@@H](CO)C(C)C)nc12,–,–,2500 nM,1500 nM
Cc1n[nH]c2c(Nc3cccc(Cl)c3)nc(NCCO)nc12,7.40,7.05,–,–
CC[C@H](CO)Nc1nc(NCc2c(O)cc(OC)cc2O)c2[nH]nc(C(C)C)c2n1,–,–,3400 nM,1800 nM
CC(C)c1n[nH]c2c(NCc3c(O)cc(Cl)cc3O)nc(N[C@@H](CO)C(C)C)nc12 [listing 2 of 2 here],–,–,1200 nM,400 nM
CC(C)c1n[nH]c2c(NCc3ccc(Cl)c(N)c3)nc(N[C@@H](CO)C(C)C)nc12,–,–,4400 nM,2600 nM
CC(C)c1n[nH]c2c(Nc3ccc(Br)cc3)nc(N[C@@H](CO)C(C)C)nc12,–,–,11400 nM,5800 nM
COc1cc(O)c(CNc2nc(N[C@@H](CO)C(C)C)nc3c(C(C)C)n[nH]c23)cc1O [listing 2 of 2 here],–,–,2500 nM,1700 nM
CC(=O)Oc1cccc(CNc2nc(N[C@@H](CO)C(C)C)nc3c(C(C)C)n[nH]c23)c1,–,–,14600 nM,12500 nM
CC(C)c1n[nH]c2c(Nc3ccc(O)c(C(=O)O)c3)nc(N[C@@H](CO)C(C)C)nc12,–,–,4200 nM,2700 nM
CC[C@H](CO)Nc1nc(Nc2ccc(Cl)cc2)c2[nH]nc(C(C)C)c2n1,–,–,9500 nM,6700 nM
CC(C)c1n[nH]c2c(NCc3cccc(O)c3)nc(N[C@@H](CO)C(C)C)nc12 [listing 2 of 2 here],–,–,8500 nM,4900 nM
CC[C@H](CO)Nc1nc(Nc2ccc(Br)cc2)c2[nH]nc(C(C)C)c2n1,–,–,9800 nM,6500 nM
COc1ccc(CNc2nc(N[C@@H](CO)C(C)C)nc3c(C(C)C)n[nH]c23)c(O)c1O [listing 2 of 2 here],–,–,2500 nM,600 nM
Cc1cccc(CNc2nc(N[C@@H](CO)C(C)C)nc3c(C(C)C)n[nH]c23)c1O,–,–,3500 nM,1200 nM
CC(C)c1n[nH]c2c(NCc3cc(O)c(Cl)cc3O)nc(N[C@@H](CO)C(C)C)nc12 [listing 2 of 2 here],–,–,2700 nM,1300 nM
CC(C)c1n[nH]c2c(NCc3cccc(Cl)c3O)nc(N[C@@H](CO)C(C)C)nc12,–,–,1100 nM,700 nM

# The next lines start with results.
pIC50 (cdk1/cyclin B (CDC2)),pIC50 (IκB-α kinase),SMILES,GI50 (B16),GI50 [1]
7.05,6.72,CC(C)c1n[nH]c2c(Nc3cccc(Cl)c3)nc(N(CCO)CCO)nc12,–,–
8.15,7.85,Cc1n[nH]c2c(Nc3ccc(C(=O)O)c(Cl)c3)nc(NCCO)nc12,–,–
8.15,7.82,COc1cc(O)c(CNc2nc(NCCO)nc3c(C)n[nH]c23)cc1O,–,–
8.00,7.52,Cc1cccc(CNc2nc(NCCO)nc3c(C)n[nH]c23)c1O,–,–
7.22,6.82,CC(C)c1n[nH]c2c(NC(CO)c3ccccc3)nc(N[C@@H](CO)C(C)C)nc12 (mixture of isomers),–,–
8.40,8.05,COc1cc(O)c(CNc2nc(NCCO)nc3c(C)n[nH]c23)c(O)c1,–,–
8.05,7.68,Cc1n[nH]c2c(NCc3ccc(Cl)c(O)c3O)nc(NCCO)nc12,–,–
9.22,8.82,COc1cc(O)c(CNc2nc(N[C@@H](CO)C(C)C)nc3c(C(C)C)n[nH]c23)cc1O [listing 1 of 2 here],–,–
9.00,8.70,CC(C)c1n[nH]c2c(NCc3c(O)cc(Cl)cc3O)nc(N[C@@H](CO)C(C)C)nc12 [listing 1 of 2 here],–,–
9.30,9.00,CC(C)c1n[nH]c2c(NCc3ccccc3O)nc(N[C@@H](CO)C(C)C)nc12 [listing 2 of 2 here],–,–
7.10,6.62,Cc1n[nH]c2c(NCc3cccc(O)c3)nc(NCCO)nc12,–,–
7.10,6.70,CC(C)c1n[nH]c2c(Nc3cccc(Cl)c3)nc(NCCCO)nc12,–,–
7.40,7.05,CC(=O)c1cccc(CNc2nc(NCCO)nc3c(C)n[nH]c23)c1,–,–
8.70,8.22,CC[C@H](CO)Nc1nc(NCc2cc(O)c(OC)cc2O)c2[nH]nc(C(C)C)c2n1,–,–
8.05,7.64,Cc1n[nH]c2c(Nc3ccc(Cl)c(N)c3)nc(NCCO)nc12,–,–
9.10,9.00,CC(C)c1n[nH]c2c(NCc3cc(O)c(Cl)cc3O)nc(N[C@@H](CO)C(C)C)nc12 [listing 1 of 2 here],–,–

pIC50 (cdk1/cyclin B (CDC2)),pIC50 (IκB-α kinase),SMILES,GI50 (B16),GI50 [1]
8.52,7.96,CC[C@H](CO)Nc1nc(NCc2ccc(Cl)c(O)c2O)c2[nH]nc(C(C)C)c2n1,–,–
9.40,8.92,COc1ccc(CNc2nc(N[C@@H](CO)C(C)C)nc3c(C(C)C)n[nH]c23)c(O)c1O [listing 1 of 2 here],–,–
6.15,6.05,Cc1n[nH]c2c(N(C)Cc3ccc(O)c(O)c3)nc(NCCO)nc12,–,–
8.30,8.00,Cc1n[nH]c2c(Nc3ccc(Cl)c(C(=O)O)c3)nc(NCCO)nc12,–,–
7.52,6.96,CC(C)c1n[nH]c2c(N(C)Cc3ccc(O)c(O)c3)nc(N[C@@H](CO)C(C)C)nc12,–,–
9.15,8.80,COc1cc(O)c(CNc2nc(N[C@@H](CO)C(C)C)nc3c(C(C)C)n[nH]c23)c(O)c1,–,–
8.70,8.40,CC(C)c1n[nH]c2c(NCc3cccc(O)c3)nc(N[C@@H](CO)C(C)C)nc12 [listing 1 of 2 here],–,–
7.70,7.30,Cc1n[nH]c2c(NCc3ccccc3O)nc(NCCO)nc12,–,–
8.00,7.40,CC[C@H](CO)Nc1nc(NCc2cccc(C(C)=O)c2)c2[nH]nc(C(C)C)c2n1,–,–
8.10,7.55,COc1ccc(CNc2nc(NCCO)nc3c(C)n[nH]c23)c(O)c1O,–,–
8.00,7.40,COc1cccc(CNc2nc(NCCO)nc3c(C)n[nH]c23)c1O,–,–
7.05,6.68,CC[C@H](CO)Nc1nc(NC(CO)c2ccccc2)c2[nH]nc(C(C)C)c2n1 (mixture of isomers),–,–
6.14,5.82,CC[C@H](CO)Nc1nc(N(C)CCc2ccc(O)c(O)c2)c2[nH]nc(C(C)C)c2n1,–,–
7.70,7.30,CC(=O)c1ccccc1CNc1nc(N[C@@H](CO)C(C)C)nc2c(C(C)C)n[nH]c12,–,–
8.30,7.82,CC[C@H](CO)Nc1nc(NCc2ccccc2C(C)=O)c2[nH]nc(C(C)C)c2n1,–,–
